Tested on: SLC16A11
Assay: Compound treatment, SLC16A11 expression by ddPCR in SNU761 cells
Format: cell-based, human
Conditions: SNU761 cells; same doses and treatment times as in the LINCS dataset
Method: A small number of the compounds that made the strongest positive connections to the SLC16A11 gene expression signature were selected and tested. […] Methotrexate was also included, which had been annotated as a dihydrofolate reductase inhibitor. SNU761 cells (derived from a human hepatocellular carcinoma) and NCIH716 cells (derived from a human cecum adenocarcinoma), which both express SLC16A11, were treated with the compounds. The same compound concentrations and treatment times were used as in the LINCS dataset experiments. […] For normalization, a different housekeeper gene, HPRT1, was used and obtained similar results with the mTOR inhibitors (FIGS. 14A and 14B).
From the total list of compounds, 59 readily available compounds were selected from the 79 compounds with the largest connectivity scores to the query signature and 20 middle compounds with connectivity scores centered on 0 (FIG. 15A) and then treated SNU761 cells at the same doses and treatment times as were used in the LINCS dataset. It was expected that the top compounds would be enriched for compounds that increased SLC16A11 expression. […] The results were aligned with the expectations (FIG. 15B). Hierarchical clustering of the SLC16 expression profiles generated by the compound treatments are shown by the heat map in FIG. 15C.
SNU761 (human hepatocellular carcinoma) and NCIH716 (human cecum adenocarcinoma) were cultured in RPMI Medium 1640 supplemented with 10% Fetal Bovine Serum (FBS), 100 μg/ml Streptomycin and 100 U/ml Penicillin. Cells were grown in a humidified CO2 incubator, at 37° C.
For the unbiased approach taken to investigate the compounds that connected to the SLC16A11 gene expression signature, compounds were obtained from compound management at the Broad Institute.
SNU761 and NCIH716 cells were plated into 96 well plates at a density of 20,000 cells per well. Hepatocytes were plated into collagen coated 96 well plates (Corning, 354408) at a density of 50,000 cells per well. After 24 hours, cells were treated with compounds at a final concentration of 10 μM or vehicle control for the appropriate amount of time.
At the time of collection, cells in 96 well plates were lysed by directly adding 50 μL of RLT buffer (Qiagen). 75 μL of AMPure XP beads, diluted by a factor of 5 in polyethylene glycol, were then added to bind nucleic acids. One wash with polyethylene glycol was then performed. DNase treatment (Qiagen) was carried out according to the manufacturer's protocol in a final volume of 50 μL. 100 μL of polyethylene glycol was added after the DNase treatment to crowd nucleic acids back onto the beads. Two washes with 80% ethanol were performed and residual ethanol was removed. RNA was then eluted in water.
RNA was DNase treated and converted into cDNA using the High-Capacity RNA-to-cDNA kit (Thermo Fisher Scientific). The following FAM-labeled TaqMan Real-Time PCR assays (Thermo Fisher Scientific) were used to quantify gene expression: SLC16A11 (Hs00601062_g1), SLC16A13 (Hs00416832_m1), SLC16A1 (Hs01560299_m1). The VIC-labeled TaqMan Real-Time assays TBP (Hs00427620_m1) or HPRT1 (Hs02800695_m1) were used for normalization. Droplets were generated and analyzed using a QX200 Droplet Generator and Reader system (BioRad). Data was extracted using QuantaSoft (BioRad) and analyzed using Microsoft Excel.

Structure (SMILES)	avg_fc (SLC16A11 expression, compound treated vs DMSO treated cells)
O=C1NC(=O)/C(=C\c2ccc3nccnc3c2)S1 [AS-605240]	0.7908
Cc1onc(-c2ccccc2)c1-c1ccc(S(N)(=O)=O)cc1 [valdecoxib]	1.069
C[C@H](NC(=O)Cc1cc(F)cc(F)c1)C(=O)N[C@H](C(=O)OC(C)(C)C)c1ccccc1 [DAPT-GSI-IX]	1.286
Cc1cn(-c2cc(C(=O)Nc3ccc(C)c(NC(=O)c4ccno4)c3)cc(C(F)(F)F)c2)cn1 [ALW-II-38-3]	0.9734
Cc1nc2c(c(=O)[nH]1)CSCC2 [DR-2313]	1.127
COC(=O)c1c(-c2cc(OC)c(OC)c(OC)c2)c2ccnc(OCc3ncccn3)c2c(=O)n1Cc1ccnc(C)c1 [T-0156]	0.8378
N#CC(=C(N)Sc1ccc(N)cc1)c1ccccc1C(F)(F)F [MEK1-2-inhibitor]	1.414
COc1ccc2c(c1OC)N=C(NC(=O)c1cccnc1)N1CCN=C21 [PIK-90]	1.487
CC[C@@H]1C(=O)OC[C@@H]1Cc1cncn1C [pilocarpine]	0.7379
NC1(c2ccc(-c3nc4ccn5c(=O)[nH]nc5c4cc3-c3ccccc3)cc2)CCC1 [MK-2206]	0.6972
Cn1c(=O)n(-c2ccc(C(C)(C)C#N)cc2)c2c3cc(-c4cnc5ccccc5c4)ccc3ncc21 [NVP-BEZ235, 2-methyl-2-[4-(3-methyl-2-oxo-8-quinolin-3-ylimidazo[4,5-c]quinolin-1-yl)phenyl]propanenitrile, reference compound]	2.779
COc1ccccc1OCC(O)CN1CCN(CC(=O)Nc2c(C)cccc2C)CC1 (stereo not shown) [ranolazine]	0.7654
COc1cccc2cc(-c3nc([C@H]4CC[C@H](C(=O)O)CC4)n4ncnc(N)c34)[nH]c12 [OSI-027, trans-4-[4-amino-5-(7 methoxy-1H-indol-2-yl)imidazo[5,1-f][1,2,4]triazin-7-yl]-cyclohexanecarboxylic acid, reference compound]	3.384
O=C(NOCC1CC1)c1ccc(F)c(F)c1Nc1ccc(I)cc1Cl [PD-184352]	1.445
CS(=O)(=O)N1CCN(Cc2cc3nc(-c4cccc5[nH]ncc45)nc(N4CCOCC4)c3s2)CC1 [GDC-0941]	2.079
O=C(NC(COc1ccc2[nH]c(=O)[nH]c2c1)c1ccccc1)c1cccn(Cc2ccc(F)c(F)c2)c1=O (stereo not shown) [KIN001-244]	1.084
NS(=O)(=O)c1cc2c(cc1C(F)(F)F)NC(Cc1ccccc1)NS2(=O)=O (stereo not shown) [bendroflumethiazide]	0.7917
O=C1NC(=O)/C(=C/c2ccc3nccc(-c4ccncc4)c3c2)S1 [GSK-1059615]	1.25
c1ccc2c(CCNc3ccc(Nc4ccncc4)cc3)c[nH]c2c1 [JNJ-26854165]	0.5328
Nc1ccc(-c2cccc3c(=O)cc(N4CCOCC4)oc23)cc1 [PI-828]	1.336
Clc1cncc(N2CCNCC2)n1 [MK-212]	0.8022
O=C1NC(=O)/C(=C/c2ccc3c(c2)OC(F)(F)O3)S1 [AS-604850]	1.009
CC(C)OC(=O)c1cc2c(OCC(O)CNC(C)(C)C)cccc2[nH]1 (stereo not shown) [carpindolol]	0.8548
O=C(NOC[C@H](O)CO)c1ccc(F)c(F)c1Nc1ccc(I)cc1F [PD-0325901]	2.181
COc1ccc(-c2cc(=O)c3c(OC)c(OC)c(OC)c(OC)c3o2)cc1OC [nobiletin]	1.129

— US11471462B2, “Compositions and methods for detecting and treating diabetes” (THE BROAD INSTITUTE, INC., priority 2016, dated 2022)
